Results published in patent US10952999B2, “Inhibitor of cyclin-dependent kinase CDK9” (GENFLEET THERAPEUTICS (SHANGHAI) INC., priority 2017, dated 2021).

Assays:
Assay in all cases: Cancer cell growth, Cell Titer-Glo cell viability assay, 72 hours
Format in all cases: cell-based
[1] = tested on: MDS-RAEB (myelodysplastic syndrome-excess blasts type) cell line SKM-1; conditions: SKM-1, 72 hours
Excerpt: (§1) In the examples, we used acute myelocytic leukemia (AML) OCI-AML-3, acute promyelocytic leukemia cell line NB-4, MDS-RAEB (myelodysplastic syndrome-excess blasts type) cell line SKM-1, human leukemia cell Nomo-1, acute myeloid leukemia cell line MOLM14, acute myeloid leukemia cell line MOLM13, acute myeloid leukemia cell line MV4-11, acute myeloid leukemia cell line HL-60, acute myeloid leukemia cell line OCI-AML-2, histiocytic lymphoma U-937, acute B cell leukemia cell line MEC-1, acute B cell leukemia cell line MEC-2, acute megakaryoblastic leukemia CMK, hamster lung cell CHL, hamster ovary cell CHO, human non-small cell lung cancer cell H1975, human non-small cell lung cancer cell H358, human small cell lung cancer cell H209, human lung adenocarcinoma cell H1395, human non-small cell lung cancer cell PC-9, human lung cancer cell H3122, human non-small cell lung cancer cell H2122, human non-small cell lung cancer cell H1915, human lung adenocarcinoma cell H1355, human non-small cell lung cancer cell HCC827, human breast cancer cell MDA-MB-231, human breast cancer cell MDA-MB-468, human breast cancer cell MCF-7, human breast cancer cell T47D, human breast cancer cell SK-Br-3, the above cells were purchased from ATCC.
(§2) Cell Titer-Glo® (Promega, USA) chemical self-luminescence cell viability assay kit was used to detect the number of viable cells by quantitatively measuring ATP in living cells, according to which to calculate GI50 and IC50.

[2] = tested on: acute B cell leukemia cell line MEC-1; conditions: MEC-1, 72 hours
Excerpt: as §1, §2

[3] = tested on: acute B cell leukemia cell line MEC-2; conditions: MEC-2, 72 hours
Excerpt: as §1, §2

[4] = tested on: acute megakaryoblastic leukemia CMK
Excerpt: as §1, §2

[5] = tested on: acute myelocytic leukemia (AML) OCI-AML-3; conditions: OCI-AML3, 72 hours
Excerpt: as §1, §2

[6] = tested on: acute myeloid leukemia cell line HL-60; conditions: HL-60, 72 hours
Excerpt: as §1, §2

[7] = tested on: acute myeloid leukemia cell line MOLM13; conditions: MOLM-13, 72 hours
Excerpt: as §1, §2

[8] = tested on: acute myeloid leukemia cell line MOLM14; conditions: MOLM-14, 72 hours
Excerpt: as §1, §2

[9] = tested on: acute myeloid leukemia cell line MV4-11; conditions: MV4-11, 72 hours
Excerpt: as §1, §2

[10] = tested on: acute myeloid leukemia cell line OCI-AML-2; conditions: OCI-AML2, 72 hours
Excerpt: as §1, §2

[11] = tested on: acute promyelocytic leukemia cell line NB-4; conditions: NB4, 72 hours
Excerpt: as §1, §2

[12] = tested on: hamster lung cell CHL; conditions: CHL, 72 hours
Excerpt: as §1, §2

[13] = tested on: hamster ovary cell CHO; conditions: CHO, 72 hours
Excerpt: as §1, §2

[14] = tested on: histiocytic lymphoma U-937; conditions: U-937, 72 hours
Excerpt: as §1, §2

[15] = tested on: human leukemia cell Nomo-1; conditions: Nomo-1, 72 hours
Excerpt: as §1, §2

COCCN[C@H]1CC[C@H](Nc2cc(-c3csc(NCC4CCCCC4)n3)c(Cl)cn2)CC1 [Compound 10, (1r,4r)-N^1-(5-chloro-4-(2-((cyclohexylmethyl)amino)thiazol-4-yl)pyridin-2-yl)-N^4-(2-methoxyethyl)cyclohexane-1,4-diamine]
GI50 ([1]; Homo sapiens): 330 nM | GI50 ([2]; Homo sapiens, MEC1): 850 nM | GI50 ([3]; MEC2): 660 nM | GI50 [4]: 980 nM | GI50 ([5]; Homo sapiens, OCI-AML-3): 560 nM | GI50 ([6]; Homo sapiens): 410 nM | GI50 ([7]; Homo sapiens): 820 nM | GI50 ([8]; Homo sapiens): 330 nM | GI50 ([9]; Homo sapiens): 1100 nM | GI50 ([10]; Homo sapiens): 600 nM | GI50 [11]: 490 nM | GI50 [12]: 8000 nM | GI50 [13]: 780 nM | GI50 ([14]; Homo sapiens): 340 nM | GI50 ([15]; Homo sapiens): 600 nM

COCCN[C@H]1CC[C@H](Nc2cc(-c3csc(NCc4ccccc4)n3)c(Cl)cn2)CC1 [Compound 11, (1r,4r)-N^1-(4-(2-(benzylamino)thiazol-4-yl)-5-chloropyridin-2-yl)-N^4-(2-methoxyethyl)cyclohexane-1,4-diamine]
GI50 ([1]; Homo sapiens): 170 nM | GI50 ([2]; Homo sapiens, MEC1): 470 nM | GI50 ([3]; MEC2): 320 nM | GI50 [4]: 470 nM | GI50 ([5]; Homo sapiens, OCI-AML-3): 220 nM | GI50 ([6]; Homo sapiens): 73 nM | GI50 ([7]; Homo sapiens): 280 nM | GI50 ([8]; Homo sapiens): 160 nM | GI50 ([9]; Homo sapiens): 330 nM | GI50 ([10]; Homo sapiens): 330 nM | GI50 [11]: 270 nM | GI50 [12]: 1000 nM | GI50 [13]: 370 nM | GI50 ([14]; Homo sapiens): 220 nM | GI50 ([15]; Homo sapiens): 960 nM

COCCN[C@H]1CC[C@H](Nc2cc(-c3csc(NCc4ccc(F)cc4)n3)c(Cl)cn2)CC1 [Compound 12, (1r,4r)-N^1-(5-chloro-4-(2-((4-fluorobenzyl)amino)thiazol-4-yl)pyridin-2-yl)-N^4-(2-methoxyethyl)cyclohexane-1,4-diamine]
GI50 ([1]; Homo sapiens): 200 nM | GI50 ([2]; Homo sapiens, MEC1): 450 nM | GI50 ([3]; MEC2): 480 nM | GI50 [4]: 720 nM | GI50 ([5]; Homo sapiens, OCI-AML-3): 390 nM | GI50 ([6]; Homo sapiens): 190 nM | GI50 ([7]; Homo sapiens): 290 nM | GI50 ([8]; Homo sapiens): 310 nM | GI50 ([9]; Homo sapiens): 880 nM | GI50 ([10]; Homo sapiens): 410 nM | GI50 [11]: 410 nM | GI50 [12]: 1100 nM | GI50 [13]: 470 nM | GI50 ([14]; Homo sapiens): 390 nM | GI50 ([15]; Homo sapiens): 920 nM

COCCN[C@H]1CC[C@H](Nc2cc(-c3csc(NCC4CC4)n3)c(Cl)cn2)CC1 [Compound 13, (1r,4r)-N^1-(5-chloro-4-(2-((cyclopropylmethyl)amino)thiazol-4-yl)pyridin-2-yl)-N^4-(2-methoxyethyl)cyclohexane-1,4-diamine]
GI50 ([1]; Homo sapiens): 260 nM | GI50 ([2]; Homo sapiens, MEC1): 890 nM | GI50 ([3]; MEC2): 660 nM | GI50 [4]: 1100 nM | GI50 ([5]; Homo sapiens, OCI-AML-3): 420 nM | GI50 ([6]; Homo sapiens): 320 nM | GI50 ([7]; Homo sapiens): 440 nM | GI50 ([8]; Homo sapiens): 330 nM | GI50 ([9]; Homo sapiens): 740 nM | GI50 ([10]; Homo sapiens): 600 nM | GI50 [11]: 340 nM | GI50 [12]: 1400 nM | GI50 [13]: 770 nM | GI50 ([14]; Homo sapiens): 320 nM | GI50 ([15]; Homo sapiens): 870 nM

COCCN[C@H]1CC[C@H](Nc2cc(-c3csc(OCC4CCOCC4)n3)c(Cl)cn2)CC1 [Compound 16, (1r,4r)-N^1-(5-chloro-4-(2-((tetrahydro-2H-pyran-4-yl)methoxy)thiazol-4-yl)pyridin-2-yl)-N^4-(2-methoxyethyl)cyclohexane-1,4-diamine]
GI50 ([1]; Homo sapiens): 500 nM | GI50 ([2]; Homo sapiens, MEC1): 1400 nM | GI50 ([3]; MEC2): 970 nM | GI50 [4]: 1400 nM | GI50 ([5]; Homo sapiens, OCI-AML-3): 630 nM | GI50 ([6]; Homo sapiens): 450 nM | GI50 ([7]; Homo sapiens): 570 nM | GI50 ([8]; Homo sapiens): 620 nM | GI50 ([9]; Homo sapiens): 630 nM | GI50 ([10]; Homo sapiens): 2100 nM | GI50 [11]: 580 nM | GI50 [12]: 3300 nM | GI50 [13]: 1300 nM | GI50 ([14]; Homo sapiens): 600 nM | GI50 ([15]; Homo sapiens): 1500 nM

COCCN[C@H]1CC[C@H](Nc2cc(-c3csc(SCC4CCOCC4)n3)c(Cl)cn2)CC1 [Compound 17, (1r, 4r)-N^1-(5-chloro-4-(2-(((tetrahydro-2H-pyran-4-yl)methyl)mercapto)thiazol-4-yl)pyridin-2-yl)-N^4-(2-methoxyethyl)cyclohexane-1,4-diamine]
GI50 [1]: 330 nM | GI50 [2]: 800 nM | GI50 [3]: 700 nM | GI50 [4]: 1100 nM | GI50 [5]: 980 nM | GI50 [6]: 160 nM | GI50 [7]: 340 nM | GI50 [8]: 360 nM | GI50 [9]: 1100 nM | GI50 [10]: 800 nM | GI50 [11]: 350 nM | GI50 [12]: 5600 nM | GI50 [13]: 610 nM | GI50 [14]: 300 nM | GI50 [15]: 930 nM
